Each block holds one compound with its values, some of them ahead of it.
Experiments:
yeast α-glucosidase = yeast α-glucosidase (Saccharomyces cerevisiae, UniProt P53341); assay: In vitro α-glucosidase inhibition assay; assay type: biochemical; details: for Fold decrease of inhibitory activity relative to compound 10g: compared with 2,6-dimethyl derivative 10g; for Fold increase of inhibitory activity relative to compound 10m: compared with 4-nitro derivative 10m; for Fold decrease of anti-α-glucosidase activity relative to compound 10e: compared with 4-ethylphenyl derivative 10e
α-glucosidase = α-glucosidase (Saccharomyces cerevisiae, UniProt P53341); assay: Kinetic study of α-glucosidase inhibition; assay type: biochemical, yeast
Chain of α-glucosidase (P53341 whole entry): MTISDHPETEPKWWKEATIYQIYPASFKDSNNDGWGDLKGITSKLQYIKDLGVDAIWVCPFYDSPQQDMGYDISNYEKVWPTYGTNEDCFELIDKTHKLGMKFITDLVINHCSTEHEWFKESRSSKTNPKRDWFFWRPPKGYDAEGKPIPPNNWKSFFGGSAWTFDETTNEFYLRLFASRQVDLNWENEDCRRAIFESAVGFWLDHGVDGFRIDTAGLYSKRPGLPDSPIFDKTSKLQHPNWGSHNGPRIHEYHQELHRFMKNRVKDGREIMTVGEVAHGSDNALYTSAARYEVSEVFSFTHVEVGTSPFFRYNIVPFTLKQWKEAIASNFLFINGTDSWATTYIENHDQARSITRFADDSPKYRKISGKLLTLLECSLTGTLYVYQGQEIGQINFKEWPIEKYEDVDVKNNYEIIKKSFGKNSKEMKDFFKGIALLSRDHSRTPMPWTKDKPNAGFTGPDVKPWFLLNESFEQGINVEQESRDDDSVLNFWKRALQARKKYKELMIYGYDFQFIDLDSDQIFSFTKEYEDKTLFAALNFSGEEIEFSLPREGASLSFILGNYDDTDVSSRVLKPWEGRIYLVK

Chain of yeast α-glucosidase (P53341 whole entry): as above

SMILES: NC(=S)N/N=C/c1cc2ccccc2nc1SCc1cn(CC(=O)Nc2cccc([N+](=O)[O-])c2)nn1 [Compound 10k, (E)-2-(4-(((3-((2-Carbamothioylhydrazineylidene)methyl)quinolin-2-yl)thio)methyl)-1H-1,2,3-triazol-1-yl)-N-(3-nitrophenyl)acetamide]
Fold increase of inhibitory activity relative to compound 10m (yeast α-glucosidase): 2.58 folds

SMILES: NC(=S)N/N=C/c1cc2ccccc2nc1SCc1cn(CC(=O)NCCc2ccccc2)nn1 [Compound 10n, (E)-2-(4-(((3-((2-Carbamothioylhydrazineylidene)methyl)quinolin-2-yl)thio)methyl)-1H-1,2,3-triazol-1-yl)-N-phenethylacetamide]
Ki (α-glucosidase): 48.1 µM
Mode of α-glucosidase inhibition (α-glucosidase; Lineweaver–Burk plot, inhibitor 0, 12.1, 24.2, 48.4 µM): competitive α-glucosidase inhibitor
Improving the inhibitory effect (times more potent than acarbose) (yeast α-glucosidase): 15.5

SMILES: Cc1cc([N+](=O)[O-])ccc1NC(=O)Cn1cc(CSc2nc3ccccc3cc2/C=N/NC(N)=S)nn1 [Compound 10l, (E)-2-(4-(((3-((2-Carbamothioylhydrazineylidene)methyl)quinolin-2-yl)thio)methyl)-1H-1,2,3-triazol-1-yl)-N-(2-methyl-4-nitrophenyl)acetamide]
Fold increase of inhibitory activity relative to compound 10m (yeast α-glucosidase): 1.82 folds

Further lines, results first:

Fold decrease of inhibitory activity relative to compound 10g (yeast α-glucosidase): 2.3 folds
SMILES: Cc1ccccc1NC(=O)Cn1cc(CSc2nc3ccccc3cc2/C=N/NC(N)=S)nn1 [Compound 10b, (E)-2-(4-(((3-((2-Carbamothioylhydrazineylidene)methyl)quinolin-2-yl)thio)methyl)-1H-1,2,3-triazol-1-yl)-N-(o-tolyl)acetamide]

Fold decrease of anti-α-glucosidase activity relative to compound 10e (yeast α-glucosidase): 5.38 folds
SMILES: NC(=S)N/N=C/c1cc2ccccc2nc1SCc1cn(CC(=O)Nc2ccccc2)nn1 [Compound 10a, (E)-2-(4-(((3-((2-Carbamothioylhydrazineylidene)methyl)quinolin-2-yl)thio)methyl)-1H-1,2,3-triazol-1-yl)-N-phenylacetamide]

Fold decrease of anti-α-glucosidase activity relative to compound 10e (yeast α-glucosidase): 6.97 folds
SMILES: Cc1ccc(NC(=O)Cn2cc(CSc3nc4ccccc4cc3/C=N/NC(N)=S)nn2)cc1 [Compound 10d, (E)-2-(4-(((3-((2-Carbamothioylhydrazineylidene)methyl)quinolin-2-yl)thio)methyl)-1H-1,2,3-triazol-1-yl)-N-(p-tolyl)acetamide]

Fold decrease of inhibitory activity relative to compound 10g (yeast α-glucosidase): 1.6 folds
SMILES: Cc1cccc(NC(=O)Cn2cc(CSc3nc4ccccc4cc3/C=N/NC(N)=S)nn2)c1C [Compound 10f, (E)-2-(4-(((3-((2-Carbamothioylhydrazineylidene)methyl)quinolin-2-yl)thio)methyl)-1H-1,2,3-triazol-1-yl)-N-(2,3-dimethylphenyl)acetamide]

Source: paper PMC11680592 (Scientific Reports, 2024)
